Assay results reported in patent US11485733B2, “Azaquinoline derivatives” (BAYER ANIMAL HEALTH GMBH, priority 2017, dated 2022).
Several values for one entry are separate records, joined by “and”; a condition that tells them apart may be missing. Identical values can stand only once.

Columns and labels:
D. immitis Slo-1 = D. immitis Slo-1 (Dirofilaria immitis, UniProt I0DFK5); experiment: D. immitis Slo-1, action at a recombinant CHO cell line (membrane potential, FLIPR); format: cell-based
[1] = test system: Nippostrongylus brasiliensis; experiment: Nippostrongylus brasiliensis (NIPOBR) adult worms, acetylcholine esterase readout; details: read-out: activity (reduction of AChE compared to negative control); for inhibition at 1 µg/mL: at 1 μg/ml (1 ppm); for inhibition at 10 µg/mL: at 10 μg/ml (10 ppm)
Experimental: In Vitro Assay 3: Nippostrongylus brasiliensis (NIPOBR)
Adult Nippostrongylus brasiliensis were washed with saline buffer containing 100 U/ml penicillin, 0.1 mg/ml streptomycin and 2.5 μg/ml amphotericin B. Test compounds were dissolved in DMSO and worms were incubated in medium in a final concentration of 10 μg/ml (10 ppm) respectively 1 μg/ml (1 ppm). An aliquot of the medium was used to determine the acetylcholine esterase activity in comparison to a negative control. The principle of measuring acetylcholine esterase as readout for anthelmintic activity was described in Rapson et al (1986) and Rapson et al (1987).

[2] = test system: Dirofilaria immitis microfilariae; experiment: Dirofilaria immitis microfilariae (DIROIM L1) motility; details: 72 h, read-out: EC50 (reduction of motility)
Dirofilaria immitis = Dirofilaria immitis (DIROIM L4) larval motility; details: 72 h, read-out: EC50 (reduction of motility)
Cooperia curticei = Cooperia curticei larval mortality; details: 120 h, read-out: activity (percentage of larval mortality)
Experimental: In Vitro Assay 6: Cooperia curticei
Solvent: Dimethyl Sulfoxide
Approximately 40 nematode larvae (Cooperia curticei) are transferred into a test tube containing the compound solution.
After 5 days percentage of larval mortality is recorded. 100% efficacy means all larvae are killed; 0% efficacy means no larvae are killed.

Haemonchus contortus = Haemonchus contortus larval mortality; details: 120 h, read-out: activity (percentage of larval mortality)
Experimental: In Vitro Assay 7: Haemonchus contortus
Solvent: Dimethyl Sulfoxide
Approximately 40 larvae of the red stomach worm (Haemonchus contortus) are transferred into a test tube containing compound solution.
After 5 days the percentage of larval mortality is recorded. 100% efficacy means all larvae are killed, 0% efficacy means no larvae are killed.

[3] = test system: Litomosoides sigmodontis third-stage larvae; experiment: Litomosoides sigmodontis (LTMOSI L3) larval motility; details: 72 h, read-out: EC50 (reduction of motility)
Experimental: In Vitro Assay 6: Litomosoides sigmodontis (LTMOSI L3)
10 Litomosoides sigmodontis third-stage larvae, which were freshly isolated from the pleural cavity of an infected rodent, were added to wells of a microtitre plate containing a nutrient medium and the test compound in DMSO. Compounds were tested in concentration-response assay in duplicate. Larvae exposed to DMSO and no test compounds were used as negative controls. Larvae were evaluated after 72 h of incubation with the compound. Efficacy was determined as the reduction of motility in comparison to the negative control. Based on the evaluation of a wide concentration range, concentration-response curves as well as EC50-values were calculated.

C. elegans Slo-1a = C. elegans Slo-1a (Caenorhabditis elegans, UniProt Q95V25); details: pE50 (negative decadic logarithm of EC50), CHO cells expressing C. elegans Slo-1a; voltage sensitive dye, 70 mM KCl
Chain of C. elegans Slo-1a (Q95V25 whole entry): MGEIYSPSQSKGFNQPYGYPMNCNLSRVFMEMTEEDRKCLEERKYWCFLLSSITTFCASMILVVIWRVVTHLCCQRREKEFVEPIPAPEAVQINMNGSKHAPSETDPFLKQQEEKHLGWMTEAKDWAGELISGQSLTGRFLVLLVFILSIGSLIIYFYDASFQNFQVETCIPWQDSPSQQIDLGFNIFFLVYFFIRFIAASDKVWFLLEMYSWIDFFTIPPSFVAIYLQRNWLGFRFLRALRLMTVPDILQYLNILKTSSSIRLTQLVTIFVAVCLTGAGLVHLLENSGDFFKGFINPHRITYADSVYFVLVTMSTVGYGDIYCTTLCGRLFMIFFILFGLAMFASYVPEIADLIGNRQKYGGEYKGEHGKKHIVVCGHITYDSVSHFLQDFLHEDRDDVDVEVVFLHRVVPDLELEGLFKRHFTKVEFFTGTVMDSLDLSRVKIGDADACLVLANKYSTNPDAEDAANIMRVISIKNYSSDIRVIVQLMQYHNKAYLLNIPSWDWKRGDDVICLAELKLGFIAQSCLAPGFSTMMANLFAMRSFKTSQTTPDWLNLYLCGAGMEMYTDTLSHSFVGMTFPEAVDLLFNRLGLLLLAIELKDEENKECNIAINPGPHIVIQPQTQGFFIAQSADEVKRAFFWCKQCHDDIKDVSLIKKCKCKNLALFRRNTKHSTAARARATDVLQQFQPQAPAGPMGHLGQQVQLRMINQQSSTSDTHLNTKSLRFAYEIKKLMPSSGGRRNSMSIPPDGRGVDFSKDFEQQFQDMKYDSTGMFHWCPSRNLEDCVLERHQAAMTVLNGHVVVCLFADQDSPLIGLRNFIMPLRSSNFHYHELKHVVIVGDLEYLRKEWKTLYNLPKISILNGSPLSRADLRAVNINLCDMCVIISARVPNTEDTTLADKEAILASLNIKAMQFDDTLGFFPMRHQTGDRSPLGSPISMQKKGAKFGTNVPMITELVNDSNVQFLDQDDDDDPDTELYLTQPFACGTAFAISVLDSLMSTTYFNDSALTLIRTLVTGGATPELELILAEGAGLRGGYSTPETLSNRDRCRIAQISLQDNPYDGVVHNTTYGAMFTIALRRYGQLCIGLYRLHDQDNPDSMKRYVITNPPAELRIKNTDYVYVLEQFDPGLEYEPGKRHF
Experimental: Generation of a Stable C. elegans CHO Cell Line
A CHO cell line was obtained from ATCC, code ATCC CRL-9096. […] The transfection solution included 300 μL OptiMEM (Life Technologies, Nr.: 31985), 2 μL (=6 μg) of plasmid DNA containing the C. elegans Slo 1a gene and 9 μL FugeneHD (Promega, Nr.: E2311), and was added to the cells prior to incubation for 48 hours at 37° C., 5% CO2. The transfection medium was exchanged for the selection medium which contains additional G418 (2 mg/ml, Invitrogen, Nr.: 10131) and the cells were seeded into 384 well plates (300 cells/well). After a few weeks, the remaining surviving cells were tested with a voltage sensitive dye (Membrane Potential Assay Kit, Molecular Devices Nr.: R8034) for K+ channel expression. Positive cell clones were purified by the limited dilution technique. For this the clone with the highest and most robust signal in the voltage sensitive dye assay was further subcloned (incubated) in 384 well plates (0.7 cells/well) in order to obtain clonal purity. This generated a final stable CHO cell line expressing the C. elegans Slo-1a.
Cells were cultured at 37° C. and 5% CO2 in MEMalpha with Gutamax I (Invitrogen, Nr.: 32571), supplemented with 10% (v/v) heat inactivated fetal bovine serum (Invitrogen, Nr.: 10500), G418 (1 mg/ml, Invitrogen, Nr.: 10131). Cells were detached using Accutase (Sigma, Nr.: A6964).
Membrane Potential Measurements
Laboratory compound testing was performed on 384-well microtiter plates (MTPs, Greiner, Nr.: 781092). 8000 cells/well were plated onto 384-well MTPs and cultured for 20 to 24 hours at 37° C. and 5% CO2. After removal of the cell culture medium, the cells were washed once with tyrode (150 mM NaCl, 0.3 mM KCl, 2 mM CaCl2, 1 mM MgCl2, 0.8 mM NaH2PO4, 5 mM Glucose, 28 mM Hepes, pH 7.4) and then loaded with the voltage sensitive dye of the Membrane Potential Assay Kit diluted in tyrode for 1 h at room temperature.
After starting the measurement of fluorescence using a FLIPR Tetra (Molecular Devices, Exc. 510-545 nm, Emm. 565-625 nm), test compounds were added followed by the addition of KCl tyrode (final assay concentration: 70 mM KCl, 2 mM CaCl2, 1 mM MgCl2, 0.8 mM NaH2PO4, 5 mM Glucose, 28 mM Hepes, pH 7.4, including the voltage sensitive dye). The measurement was completed after 7 minutes.
The data were evaluated by using the ActivityBase XLfit software (IDBS) for curve fitting and calculation of the half-maximal effective concentration (EC50) and are reported as negative decadic logarithm (pE50).

Chain of D. immitis Slo-1 (I0DFK5 1-1119): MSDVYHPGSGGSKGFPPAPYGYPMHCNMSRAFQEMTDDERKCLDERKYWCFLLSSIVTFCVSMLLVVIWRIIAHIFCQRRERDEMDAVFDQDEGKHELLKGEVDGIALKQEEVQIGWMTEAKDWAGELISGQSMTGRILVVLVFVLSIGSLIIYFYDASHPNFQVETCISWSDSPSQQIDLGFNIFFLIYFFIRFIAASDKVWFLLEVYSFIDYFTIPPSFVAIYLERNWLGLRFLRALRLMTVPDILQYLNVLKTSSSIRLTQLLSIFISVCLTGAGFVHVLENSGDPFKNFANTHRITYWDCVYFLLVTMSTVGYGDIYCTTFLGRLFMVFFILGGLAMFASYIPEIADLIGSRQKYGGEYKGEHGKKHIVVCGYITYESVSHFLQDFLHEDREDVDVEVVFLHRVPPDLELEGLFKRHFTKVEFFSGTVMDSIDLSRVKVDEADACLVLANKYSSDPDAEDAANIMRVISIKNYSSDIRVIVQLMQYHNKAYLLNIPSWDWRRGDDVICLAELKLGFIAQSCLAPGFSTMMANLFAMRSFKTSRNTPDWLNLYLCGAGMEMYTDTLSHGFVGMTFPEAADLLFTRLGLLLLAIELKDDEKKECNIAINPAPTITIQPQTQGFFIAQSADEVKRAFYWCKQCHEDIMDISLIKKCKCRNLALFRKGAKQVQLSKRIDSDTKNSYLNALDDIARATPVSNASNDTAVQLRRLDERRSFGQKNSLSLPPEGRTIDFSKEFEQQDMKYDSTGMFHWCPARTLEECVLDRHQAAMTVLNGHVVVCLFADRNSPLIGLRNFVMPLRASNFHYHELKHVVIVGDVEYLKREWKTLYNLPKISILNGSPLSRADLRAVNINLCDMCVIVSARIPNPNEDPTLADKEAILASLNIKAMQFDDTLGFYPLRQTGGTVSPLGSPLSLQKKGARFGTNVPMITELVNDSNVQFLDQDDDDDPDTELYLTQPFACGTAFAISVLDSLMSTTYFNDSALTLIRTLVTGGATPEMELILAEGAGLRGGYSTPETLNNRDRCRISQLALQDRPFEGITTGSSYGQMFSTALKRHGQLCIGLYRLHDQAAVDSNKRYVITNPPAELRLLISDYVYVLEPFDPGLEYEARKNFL

Row | SMILES | EC50 (D. immitis Slo-1) | inhibition at 1 µg/mL [1] | EC50 [2] | EC50 (Dirofilaria immitis) | mortality at 4 ppm (Cooperia curticei) | mortality at 20 ppm (Cooperia curticei) | mortality at 20 ppm (Haemonchus contortus) | EC50 [3] | EC50 (C. elegans Slo-1a) | inhibition at 10 µg/mL [1]
1 | CN(C)c1c(C(=O)N[C@H]2CCOc3ccccc32)cnc2c(-c3cc(Cl)cc(Cl)c3)nccc12 [Example T1-1, 8-(3,5-Dichlorophenyl)-N-[(4S)-3,4-dihydro-2H-chromen-4-yl]-4-(dimethylamino)-1,7-naphthyridine-3-carboxamide] | 0.0316 to 0.316 µM | > 80% | < 0.1 µg/mL | < 0.1 µg/mL | 100% | 100% | 100% | < 0.1 µg/mL | 0.00316 to 0.0316 µM | –
2 | O=C(N[C@H]1CCOc2ccccc21)c1cnc2c(-c3cccc(Cl)c3Cl)nccc2c1N1CCOCC1 [Example T1-4, 8-(2,3-Dichlorophenyl)-N-[(4S)-3,4-dihydro-2H-chromen-4-yl]-4-(morpholin-4-yl)-1,7-naphthyridine-3-carboxamide] | 0.0316 to 0.316 µM | > 80% | < 0.1 µg/mL | < 0.1 µg/mL | 100% | – | – | < 0.1 µg/mL | 0.00316 to 0.0316 µM | > 80%
3 | O=C(N[C@H]1CCOc2ccccc21)c1cnc2c(-c3cc(F)cc(F)c3F)nccc2c1N1CCOCC1 [Example T1-5, N-[(4S)-3,4-dihydro-2H-1-benzopyran-4-yl]-4-(morpholin-4-yl)-8-(2,3,5-trifluorophenyl)-1,7-naphthyridine-3-carboxamide] | 0.0316 to 0.316 µM | > 80% | < 0.1 µg/mL | < 0.1 µg/mL | 100% | 100% | 80% | < 0.1 µg/mL | 0.00316 to 0.0316 µM | > 80%
4 | O=C(N[C@H]1CCOc2ccccc21)c1cnc2c(-c3cc(Cl)cc(Cl)c3Cl)nccc2c1N1CCOCC1 [Example T1-6, N-[(4S)-3,4-dihydro-2H-chromen-4-yl]-4-(morpholin-4-yl)-8-(2,3,5-trichlorophenyl)-1,7-naphthyridine-3-carboxamide] | 0.00316 to 0.0316 µM | > 80% | < 0.1 µg/mL | < 0.1 µg/mL | 100% | 100% | 100% | – | < 0.00316 µM | –
5 | CN(C)c1c(C(=O)N[C@H]2CCOc3ccccc32)cnc2c(-c3cccc(Cl)c3Cl)ncc(F)c12 [Example T1-10, 8-(2,3-dichlorophenyl)-N-[(4S)-3,4-dihydro-2H-1-benzopyran-4-yl]-4-(dimethylamino)-5-fluoro-1,7-naphthyridine-3-carboxamide] | 0.0316 to 0.316 µM | – | < 0.1 µg/mL | < 0.1 µg/mL | – | – | – | < 0.1 µg/mL | 0.00316 to 0.0316 µM | > 80%
6 | CN(C)c1c(C(=O)N[C@H]2CCOc3ccccc32)cnc2c(-c3cc(F)cc(F)c3F)ncc(F)c12 [Example T1-12, N-[(4S)-3,4-dihydro-2H-1-benzopyran-4-yl]-4-(dimethylamino)-5-fluoro-8-(2,3,5-trifluorophenyl)-1,7-naphthyridine-3-carboxamide] | 0.0316 to 0.316 µM | > 80% | < 0.1 µg/mL | < 0.1 µg/mL | – | – | – | < 0.1 µg/mL | – | > 80%
7 | CN(C)c1c(C(=O)N[C@H]2CCOc3ccccc32)cnc2c(-c3cc(Cl)cc(Cl)c3)cncc12 [Example T2-1, 8-(3,5-Dichlorophenyl)-N-[(4S)-3,4-dihydro-2H-chromen-4-yl]-4-(dimethylamino)-1,6-naphthyridine-3-carboxamide] | 0.0316 to 0.316 µM | > 80% | < 0.1 µg/mL | < 0.1 µg/mL | 100% | 100% | 100% | – | 0.00316 to 0.0316 µM | –
8 | O=C(N[C@H]1CCOc2ccccc21)c1cnc2c(-c3cccc(Cl)c3Cl)cncc2c1N1CCOCC1 [Example T2-3, 8-(2,3-Dichlorophenyl)-N-[(4S)-3,4-dihydro-2H-chromen-4-yl]-4-(morpholin-4-yl)-1,6-naphthyridine-3-carboxamide] | 0.00316 to 0.0316 µM | > 80% | < 0.1 µg/mL | < 0.1 µg/mL | 80% | 100% | 90% | – | 0.00316 to 0.0316 µM | –
9 | COc1ncc(-c2cc(Cl)cc(Cl)c2)c2ncc(C(=O)N[C@H]3CCOc4ccccc43)c(N(C)C)c12 [Example T2-5, 8-(3,5-dichlorophenyl)-N-[(4S)-3,4-dihydro-2H-1-benzopyran-4-yl]-4-(dimethylamino)-5-methoxy-1,6-naphthyridine-3-carboxamide] | 0.0316 to 0.316 µM | > 80% | < 0.1 µg/mL | < 0.1 µg/mL | – | – | – | < 0.1 µg/mL | – | > 80%
10 | COc1ncc(-c2cccc(Cl)c2Cl)c2ncc(C(=O)N[C@H]3CCOc4ccccc43)c(N(C)C)c12 [Example T2-12, 8-(2,3-dichlorophenyl)-N-[(4S)-3,4-dihydro-2H-1-benzopyran-4-yl]-4-(dimethylamino)-5-methoxy-1,6-naphthyridine-3-carboxamide] | 0.0316 to 0.316 µM | > 80% | < 0.1 µg/mL | < 0.1 µg/mL | – | – | – | < 0.1 µg/mL | < 0.00316 µM | > 80%
11 | CN(C)c1c(C(=O)N[C@H]2CCOc3ccccc32)cnc2c(-c3cc(Cl)cc(Cl)c3)ccnc12 [Example T3-1, 8-(3,5-Dichlorophenyl)-N-[(4S)-3,4-dihydro-2H-chromen-4-yl]-4-(dimethylamino)-1,5-naphthyridine-3-carboxamide] | 0.00316 to 0.0316 µM | > 80% | < 0.1 µg/mL | < 0.1 µg/mL | 100% | 100% | 100% | < 0.1 µg/mL | 0.00316 to 0.0316 µM and < 0.00316 µM | –
12 | CN(C)c1c(C(=O)N[C@H]2CCOc3ccccc32)cnc2c(-c3cccc(Cl)c3Cl)ccnc12 [Example T3-3, 8-(2,3-Dichlorophenyl)-N-[(4S)-3,4-dihydro-2H-chromen-4-yl]-4-(dimethylamino)-1,5-naphthyridine-3-carboxamide] | 0.00316 to 0.0316 µM | > 80% | < 0.1 µg/mL | < 0.1 µg/mL | 100% | 100% | 100% | < 0.1 µg/mL | < 0.00316 µM | –
13 | O=C(N[C@H]1CCOc2ccccc21)c1cnc2c(-c3cccc(Cl)c3Cl)ccnc2c1N1CCOCC1 [Example T3-4, 8-(2,3-Dichlorophenyl)-N-[(4S)-3,4-dihydro-2H-chromen-4-yl]-4-(morpholin-4-yl)-1,5-naphthyridine-3-carboxamide] | 0.00316 to 0.0316 µM | > 80% | < 0.1 µg/mL | < 0.1 µg/mL | 100% | 100% | 100% | – | < 0.00316 µM | –
14 | COc1cnc2c(N(C)C)c(C(=O)N[C@H]3CCOc4ccccc43)cnc2c1-c1cc(F)cc(F)c1F [Example T3-15, N-[(4S)-3,4-dihydro-2H-1-benzopyran-4-yl]-4-(dimethylamino)-7-methoxy-8-(2,3,5-trifluorophenyl)-1,5-naphthyridine-3-carboxamide] | 0.00316 to 0.0316 µM | > 80% | < 0.1 µg/mL | < 0.1 µg/mL | – | – | – | < 0.1 µg/mL | – | > 80%
15 | CN(C)c1c(C(=O)N[C@H]2CCOc3ccccc32)cnc2c(-c3cccc(Cl)c3Cl)c(F)cnc12 [Example T3-17, 8-(2,3-dichlorophenyl)-N-[(4S)-3,4-dihydro-2H-1-benzopyran-4-yl]-4-(dimethylamino)-7-fluoro-1,5-naphthyridine-3-carboxamide] | 0.00316 to 0.0316 µM | > 80% | < 0.1 µg/mL | < 0.1 µg/mL | – | – | – | < 0.1 µg/mL | – | > 80%
16 | O=C(N[C@H]1CCOc2ccccc21)c1cnc2c(-c3cc(F)cc(F)c3F)c(F)cnc2c1N1CCOCC1 [Example T3-20, N-[(4S)-3,4-dihydro-2H-1-benzopyran-4-yl]-7-fluoro-4-(morpholin-4-yl)-8-(2,3,5-trifluorophenyl)-1,5-naphthyridine-3-carboxamide] | 0.00316 to 0.0316 µM | > 80% | < 0.1 µg/mL | < 0.1 µg/mL | – | – | – | < 0.1 µg/mL | – | > 80%
17 | COc1c(C(=O)N[C@H]2CCOc3ccccc32)nnc2c(-c3cc(Cl)cc(Cl)c3)cccc12 [Example T5-5, 8-(3,5-Dichlorophenyl)-N-[(4S)-3,4-dihydro-2H-chromen-4-yl]-4-methoxycinnoline-3-carboxamide] | 0.0316 to 0.316 µM | > 80% | < 0.1 µg/mL | < 0.1 µg/mL | 80% | 80% | 80% | – | 0.00316 to 0.0316 µM | –
